How the values were obtained:
HLA-DR-2 molecules = biological target: T1, HLA-DR-2 molecules (Homo sapiens, UniProt P01903+P01911); assay: Competitive binding of biotinylated MBP 86-100 to HLA-DR-2 molecules; conditions: biotinylated MBP 86-100 0.13 μM, 40 hr at 37° C.
T1 construct: Recombinant water-soluble HLA-DR-2 molecules were incubated with biotinylated MBP 86-100; Soluble HLA-DR-2 molecules were expressed in Drosophila S2 cells; made in house; host or cells: Drosophila S2 cells
Method: Protein expression and purification. Soluble HLA-DR-2 molecules were expressed in Drosophila S2 cells and purified as described (Kalandadze, A. et al. 1996. J. Biol. Chem. 271:20156-20162). Cells were grown at 26° C. in roller bottles in ExCell 401 medium (JRH Biosciences, Lenexa, Kans.) supplemented with 0-5% fetal bovine serum (Sigma Chemicals, St. Louis, Mo.). Cells were harvested 4-5 days after induction by 1 mM CuSO4. Supernatant from harvested cells was sequentially passed through Protein A, Protein G and Protein A-LB3.1 columns, followed by elution of the bound HLA-DR with 50 mM 3-[cyclohexylamino]-1-propanesulfonic acid (CAPS), pH 11.5, and neutralized with 200 mM phosphate (pH 6.0). Proteins were concentrated on a Centriprep 10 membrane (Amicon, Beverly, Mass.).
(A). Solutions. The solutions used in this assay are the following: binding buffer is 20 mM 2-[N-morpholino]ethanesulfonic acid (MES), 140 mM NaCl, 0.05% NaN3, pH 5.0, unless otherwise specified; PBS is 150 mM sodium chloride, 7.5 mM sodium phosphate, dibasic, 2.5 mM sodium phosphate, monobasic, pH 7.2; TBS is 137 mM sodium chloride, 25 mM Tris pH 8.0, 2.7 mM potassium chloride; TTBS is TBS plus 0.05% Tween-20. (B). […] Bound peptide-biotin was detected using streptavidin-conjugated alkaline phosphatase, as follows. […] Absorbance at 410 nm was monitored by a microplate reader (model MR4000; Dynatech, Chantilly, Va.).

[1] = system: EAE induced by MBP 85-99 in humanized mice carrying HLA DR-2 and TCR transgenes; assay: Suppression of EAE induced by MBP 85-99 in humanized mice; assay type: in vivo; conditions: for Clinical score (severity of symptoms): 50 days
Text: Mouse strains. SJL/J (H-2^s) mice (8-12 weeks of age) were purchased from Jackson Laboratories (Bar Harbor, Me.) and were maintained in the animal facility at Harvard University according to the Guidelines of the Committee on Animals of Harvard University and the Committee on Care and Use of Laboratory Animal Resources, National Research Counsel (Department of Health and Human Services Publication 85-23, revised 1987).
Experimental animals were humanized mice carrying transgenes HLA DR-2 (DRA* 0101 and DRB1* 1501) and TCR from MS patient […], which is a V(D)J rearrangement of TCRα and TCRβ, amplified from clone Ob.1A12. Mice in each group were injected with MBP 85-99 (SEQ ID NO: 2) subcutaneously to induce EAE. […] Clinical symptoms were monitored over a course of 50 days on days indicated.

[2] = system: H-2s-restricted PLP 139-151-specific T cell hybridoma hPLP/1; assay: Antigen presentation assay, hPLP/1 hybridoma; assay type: cell-based, mouse; conditions: SJL/J splenocytes, PLP 139-151 24 μM, copolymer 28 μM (FIG. 2B)
Text: (§1) Antigen presentation assays.

MS patients = conditions: cited from earlier work
[3] = system: H-2s-restricted PLP 139-151-specific T cell hybridoma hPLP/c4; conditions: SJL/J splenocytes, PLP 139-151 24 μM, copolymer 28 μM (FIG. 2C)
[4] = system: 2E12 T cell clone (MBP 84-102-specific hybridoma from HLA-DR-2-transgenic mice); assay: Antigen presentation assay, 2E12 T cell clone; assay type: cell-based, mouse; conditions: L466 APC, MBP 85-99 4 μM (FIG. 1A)
Text: as §1

[5] = system: EAE induced by PLP 139-151 in SJL/J mice; assay: Suppression of EAE induced by PLP 139-151 peptide; assay type: in vivo; conditions: for Maximum mean score: clinical scale 1-5; for Incidence (mice with clinical signs of EAE / total immunized mice): Example 10: SJL/J mice co-injected with 50 μg PLP 139-151 and 500 μg copolymer, observed 70 days
Method: (§2) Induction and suppression of EAE. […] Mice were scored daily for clinical signs of EAE on a scale 1-5, according to the severity of disease symptoms as previously described (Santambrogio, L. et al. 1993. J. Immunol. 151: 1116). For determination of suppression of EAE, each copolymer (500 μg/mouse) was mixed and injected with the encephalitogenic emulsion as described above.
To find out whether random copolymers provided herein might affect development of chronic-relapsing EAE, mice were injected subcutaneously with 50 μg of PLP 139-151 (SEQ ID NO: 4; the encephalitogenic epitope in the SJL/J strain) alone, or with 50 μg of PLP 139-151 (SEQ ID NO: 4) and 500 μg of the copolymer. Mice were examined on a daily basis for 90 days after the induction of the disease.
In vivo experiments were carried out to determine whether the Y- and F-containing 50-mer random copolymers would affect the clinical course of EAE in SJL/J mice. As in Examples above, the protocol for co-immunization was subcutaneous injection of SJL/J mice with, in this example, the encephalitogenic epitope PLP 139-151 (SEQ ID NO: 4; 50 μg) and a copolymer preparation (500 μg). Following disease induction, mice were observed daily for appearance of typical signs of EAE, during a period of 70 days.

[6] = system: Hy1B clone (MBP 84-102-specific TCR transfectant); assay: Antigen presentation assay, Hy1B T cell clone; assay type: cell-based; conditions: MGAR APC, MBP 85-99 12.5 μM (FIG. 1C)
Text: as §1

[7] = system: EAE induced by WSCH in SJL/J mice; assay: Suppression of EAE induced by WSCH; assay type: in vivo; conditions: for Incidence (mice with clinical signs of EAE / total immunized mice): SJL/J mice coinjected s.c. with 500 μg WSCH and 500 μg copolymer, observed 40 days
Method: as §2
To find out whether VEAK and FEAK random copolymers affected the clinical course of EAE in SJL/J mice, a number of in vivo experiments were performed. The protocol for disease induction was subcutaneous injection to co-immunize with both WSCH (500 μg) and each copolymer (500 μg), similar to the protocol of previous studies of suppression of EAE by Cop1 (Teitelbaum, D. et al. 1996. J. Neuroimmunol. 64:209-217). Following disease induction, mice were observed daily for 40 days for appearance of typical clinical signs of EAE (Table 1).

[8] = Example 10: 50 μg PLP 139-151 + 500 μg copolymer
[9] = Example 10: 50 μg PLP 139-151 + 500 μg copolymer, listed as Copaxone®
[10] = SJL/J mice, 500 μg WSCH + 500 μg copolymer

Substance: Glatiramer acetate [Copaxone ®]
- Inhibition of binding of biotinylated MBP 86-100 to HLA-DR-2 molecules (HLA-DR-2 molecules): inhibited most efficiently
- Number of time points with symptoms ([1]; co-immunized): nine
- Clinical score (severity of symptoms) ([1]; co-immunized on day 0 with 500 μg copolymer and 50 μg MBP 85-99): 2 to 3
- Number of time points with symptoms ([1]; pre-immunized): 14 time points
- Stable level of symptoms (severity) ([1]; pre-immunized): greater than 1
- Clinical score (severity of symptoms) ([1]; pre-immunized two days prior to EAE induction): greater than 3
- Inhibition of proliferation of hPLP/1 hybridoma [2]: best inhibited
- Reduction of frequency of relapse (MS patients): about 30%
- Toxicity (MS patients; wide use): little or no toxicity
- Inhibition of hPLP/c4 hybridoma [3]: best inhibited
- Inhibition of proliferation of the 2E12 T cell clone [4]: efficient
- Day of first attack ([5]; Example 6): 26 days
- Day of peak of first attack ([5]; Example 6): 34 days
- Mean maximal score ([5]; Example 6): 1.25
- Mortality ([5]; Example 6: 50 μg PLP 139-151 + 500 μg copolymer, 90 days): 12%
- Mice with clinical signs of EAE out of group ([5]; Example 6: 50 μg PLP 139-151 + 500 μg copolymer, observed 90 days): two out of eight
- Mean day of onset [5, 8]: 22.7 ± 7.1 days
- Percent disease [5, 8]: 75%
- Percent mortality [5, 8]: 6%
- Maximum mean score [5, 8]: 2.6 ± 1.6
- Maximum mean score [5, 9]: 2.6
- Mean day of onset [5, 9]: 22 days
- Incidence (mice with clinical signs of EAE / total immunized mice) [5]: 12/16
- Incidence (mice with clinical signs of EAE / total immunized mice) ([5]; listed as Copaxone®): 12 of 16
- Inhibition of the Hy1B clone [6]: best inhibitor
- Incidence (mice with clinical signs of EAE / total immunized mice) [7]: 1/14
- Incidence (mice with clinical signs of EAE / total immunized mice) ([7]; listed as Copaxone®): One out of fourteen
- Mean day of onset [7, 10]: 20.0 days
- Percent disease [7, 10]: 7%
- Percent mortality [7, 10]: 0%
- Maximum mean score ([7]; SJL/J mice, 500 μg WSCH + 500 μg copolymer, clinical scale 1-5): 3.0
- Mean day of onset ([7]; SJL/J mice, 500 μg WSCH + 500 μg copolymer, listed as Copaxone®): 20 days
- Effect on course of EAE induced by WSCH (in words) ([7]; co-immunization, 500 μg copolymer): suppressed EAE

Substance: ENPVVHFFKNIVTPR [MBP 85-99]
- Inhibition of binding of biotinylated MBP 86-100 to HLA-DR-2 molecules (HLA-DR-2 molecules): inhibited most efficiently
